Test results taken from patent US12006553B2, “Companion diagnostics for mitochondrial inhibitors” (priority 2017, dated 2024).
Blank lines part the entries; values can stand above or below the molecule they belong to.

Experiments:
[1] = tested on: DoxyR-CSCs (Doxy-resistant (DoxyR)-MCF7 cells); experiment: Sensitivity of Doxy-resistant CSCs to other metabolic therapies; assay type: cell-based
Source text: One concern with doxycycline therapy is the potential for the development of drug-resistance in CSCs. To investigate this issue, the inventors developed and characterized the phenotypic behavior of Doxy-resistant (DoxyR)-MCF7 cells.

[2] = tested on: cancer stem cells (CSCs); experiment: CSC propagation / 3D spheroid (mammosphere) formation on low-attachment plates; assay type: cell-based; settings: for IC50: CSCs, read-out: IC-50 for inhibition of CSC propagation; for inhibition of CSC propagation / 3D spheroid formation (in words): anchorage-independent growth
Source text: Because CSCs are relatively “rare”, little is known about their metabolic properties. […] Under such conditions, the majority (more than 90%) of “bulk” cancer cells die via apoptosis, while only the CSCs survive and propagate, ultimately resulting in the formation of 3D spheroid structures after about 5 days. Each 3D spheroid is clonally formed from a single CSC. For breast CSCs, these 3D spheroids are also known as tumor-spheres or mammospheres. The generation of these 3D spheroids is thought to mimic the process of tumor formation and/or metastasis, thus providing a model for drug discovery and functional validation.

[3] = tested on: HMGR (3-hydroxy-3-methylglutaryl-CoA-reductase); experiment: Inhibition of mevalonate metabolism; settings: statin-like

SMILES: CNC(=O)c1cc(Oc2ccc(NC(=O)Nc3ccc(Cl)c(C(F)(F)F)c3)cc2)ccn1 [Sorafenib]
sensitivity of DoxyR-CSCs to the drug [1]: sensitive

IC50 [2]: ~100 nM
SMILES: CC(=O)c1c(C)c2cnc(Nc3ccc(N4CCNCC4)cn3)nc2n(C2CCCC2)c1=O [Palbociclib]

SMILES: O=C(Nc1ccc([N+](=O)[O-])cc1Cl)c1cc(Cl)ccc1O [Niclosamide]
sensitivity of DoxyR-CSCs to the drug [1]: sensitive

inhibition of mevalonate metabolism [3]: inhibit
SMILES: COc1ccc([C@@H]2CC(=O)c3c(O)cc(O[C@@H]4O[C@H](COC(=O)CC(C)(O)CC(=O)O)[C@@H](O)[C@H](O)[C@H]4O[C@@H]4O[C@@H](C)[C@H](O)[C@@H](O)[C@H]4O)cc3O2)cc1O (some centres unmarked) [brutieridin]
inhibition of CSC propagation / 3D spheroid formation (in words) [2]: inhibit

SMILES: CC(C)(C)C(O)/C=C/c1ccc2c(c1)OCO2 (centres unmarked) [Stiripentol]
sensitivity of DoxyR-CSCs to the drug [1]: sensitive

SMILES: O=C1O[C@H]([C@@H](O)CO)C(O)=C1O [Vitamin C]
sensitivity of DoxyR-CSCs to the drug [1]: sensitive

SMILES: CCc1c2c(nc3ccc(OC(=O)N4CCC(N5CCCCC5)CC4)cc13)-c1cc3c(c(=O)n1C2)COC(=O)[C@]3(O)CC [Irinotecan]
sensitivity of DoxyR-CSCs to the drug [1]: sensitive

SMILES: CC[C@H]1/C=C/C=C/C[C@@H](C)[C@H](O)[C@@](C)(O)C(=O)[C@@H](C)[C@H](O)[C@@H](C)C(=O)[C@@H](C)[C@H](O)[C@@H](C)/C=C/C(=O)O[C@@H]2[C@H](C)[C@H](CC1)O[C@]1(CC[C@H](C)[C@H](C[C@@H](C)O)O1)[C@H]2C [oligomycin]
inhibition of CSC propagation / 3D spheroid formation (in words) [2]: effectively blocked

SMILES: CCN(CC)CCCC(C)Nc1ccnc2cc(Cl)ccc12 (centres unmarked) [Chloroquine]
sensitivity of DoxyR-CSCs to the drug [1]: sensitive

SMILES: [Cl-].c1ccc2c(c1)[I+]c1ccccc1-2 [DPI, diphenyleneiodium chloride]
IC50 [2]: ~3 nM
potency for targeting CSCs relative to Palbociclib ([2]; versus Palbociclib): approximately 30 times

inhibition of mevalonate metabolism [3]: inhibit
SMILES: C[C@@H]1O[C@@H](O[C@@H]2[C@@H](Oc3cc(O)c4c(c3)O[C@H](c3ccc(O)cc3)CC4=O)O[C@@H](COC(=O)C[C@@](C)(O)CC(=O)O)[C@H](O)[C@H]2O)[C@@H](O)[C@H](O)[C@H]1O [melitidin]
inhibition of CSC propagation / 3D spheroid formation (in words) [2]: inhibit
